Assay results as given in ChEMBL document CHEMBL1149514, “Tetrahydrofluorenones with conformationally restricted side chains as selective estrogen receptor beta ligands” (Bioorg Med Chem Lett, 2006).

What was measured:
Estrogen receptor = target: T1, Estrogen receptor (Homo sapiens, UniProt P03372)
T1 sequence (P03372 whole entry): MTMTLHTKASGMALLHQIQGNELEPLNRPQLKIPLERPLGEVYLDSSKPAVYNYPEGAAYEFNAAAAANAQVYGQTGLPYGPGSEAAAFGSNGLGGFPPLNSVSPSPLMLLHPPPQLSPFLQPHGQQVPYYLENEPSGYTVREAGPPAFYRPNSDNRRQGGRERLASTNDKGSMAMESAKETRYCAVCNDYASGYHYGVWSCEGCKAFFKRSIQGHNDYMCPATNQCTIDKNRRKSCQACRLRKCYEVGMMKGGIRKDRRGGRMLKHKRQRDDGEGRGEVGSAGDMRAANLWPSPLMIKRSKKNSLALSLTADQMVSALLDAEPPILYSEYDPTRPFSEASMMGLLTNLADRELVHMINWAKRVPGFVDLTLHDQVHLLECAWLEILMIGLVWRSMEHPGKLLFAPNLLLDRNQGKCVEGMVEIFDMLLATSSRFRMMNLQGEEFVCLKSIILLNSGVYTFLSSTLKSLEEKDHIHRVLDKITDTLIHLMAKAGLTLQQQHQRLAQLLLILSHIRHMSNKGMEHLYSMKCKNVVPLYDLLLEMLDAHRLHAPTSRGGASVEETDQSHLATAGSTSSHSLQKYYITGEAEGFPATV
Description: Binding affinity to human recombinant ERalpha by scintillation proximity assay

Estrogen receptor beta = Estrogen receptor beta (Homo sapiens, UniProt Q92731)
Estrogen receptor beta, sequence (Q92731 whole entry): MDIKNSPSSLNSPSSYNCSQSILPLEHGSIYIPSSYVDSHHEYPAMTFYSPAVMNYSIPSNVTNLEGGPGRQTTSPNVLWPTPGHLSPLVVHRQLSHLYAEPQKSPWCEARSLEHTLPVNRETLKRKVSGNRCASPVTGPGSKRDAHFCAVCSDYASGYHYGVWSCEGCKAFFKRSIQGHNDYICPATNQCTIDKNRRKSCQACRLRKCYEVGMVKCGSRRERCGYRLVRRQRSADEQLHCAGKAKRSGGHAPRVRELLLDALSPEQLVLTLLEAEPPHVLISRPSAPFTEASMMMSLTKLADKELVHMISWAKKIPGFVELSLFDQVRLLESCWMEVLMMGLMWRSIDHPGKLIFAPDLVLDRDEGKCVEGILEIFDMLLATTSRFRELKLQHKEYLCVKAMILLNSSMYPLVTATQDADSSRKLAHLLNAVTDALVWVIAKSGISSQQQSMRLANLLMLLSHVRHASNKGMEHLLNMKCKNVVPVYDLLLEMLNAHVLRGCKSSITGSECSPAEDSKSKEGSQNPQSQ
Description: Binding affinity to human recombinant ERbeta by scintillation proximity assay

SMILES: CCC[C@@H]1CC[C@@H]2C[C@]13Cc1cc(O)ccc1C3=C(C)C2=O
- IC50 (Estrogen receptor): 84 nM
- IC50 (Estrogen receptor beta): 5 nM

SMILES: CC[C@@H]1CC[C@@H]2C[C@]13Cc1cc(O)ccc1C3=C(C)C2=O
- IC50 (Estrogen receptor): 146 nM
- IC50 (Estrogen receptor beta): 5 nM

SMILES: CCC[C@H]1CC[C@@H]2C[C@]13Cc1cc(O)ccc1C3=C(C)C2=O
- IC50 (Estrogen receptor): 605 nM
- IC50 (Estrogen receptor beta): 141 nM

SMILES: CC1=C2c3ccc(O)cc3C[C@@]23CCC[C@H](C3)C1=O
- IC50 (Estrogen receptor): 414 nM
- IC50 (Estrogen receptor beta): 11 nM

SMILES: CC[C@H]1CC[C@@H]2C[C@]13Cc1cc(O)ccc1C3=C(C)C2=O
- IC50 (Estrogen receptor): 310 nM
- IC50 (Estrogen receptor beta): 45 nM

SMILES: CC1=C2c3ccc(O)cc3C[C@@]23CC[C@H](C3)C1=O
- IC50 (Estrogen receptor): 793 nM
- IC50 (Estrogen receptor beta): 12 nM
